{"source": "ChEMBL document CHEMBL4811240", "about": "“Discovery of N-substituted sulfamoylbenzamide derivatives as novel inhibitors of STAT3 signaling pathway based on Niclosamide” (Eur J Med Chem, 2021)", "key": {"MDA-MB-231 [1]": {"tested_on": "MDA-MB-231", "test": "Antitumor activity against human MDA-MB-231 cells xenografted in BALB/c nude mouse assessed as the inhibition of tumor growth at 30 mg/kg, ig administered every two days", "format": "functional, organism-based"}, "[2]": {"target": "Epidermal growth factor receptor (Homo sapiens) (UniProt P00533)", "sequence (P00533 whole entry, the tested form may be a part)": "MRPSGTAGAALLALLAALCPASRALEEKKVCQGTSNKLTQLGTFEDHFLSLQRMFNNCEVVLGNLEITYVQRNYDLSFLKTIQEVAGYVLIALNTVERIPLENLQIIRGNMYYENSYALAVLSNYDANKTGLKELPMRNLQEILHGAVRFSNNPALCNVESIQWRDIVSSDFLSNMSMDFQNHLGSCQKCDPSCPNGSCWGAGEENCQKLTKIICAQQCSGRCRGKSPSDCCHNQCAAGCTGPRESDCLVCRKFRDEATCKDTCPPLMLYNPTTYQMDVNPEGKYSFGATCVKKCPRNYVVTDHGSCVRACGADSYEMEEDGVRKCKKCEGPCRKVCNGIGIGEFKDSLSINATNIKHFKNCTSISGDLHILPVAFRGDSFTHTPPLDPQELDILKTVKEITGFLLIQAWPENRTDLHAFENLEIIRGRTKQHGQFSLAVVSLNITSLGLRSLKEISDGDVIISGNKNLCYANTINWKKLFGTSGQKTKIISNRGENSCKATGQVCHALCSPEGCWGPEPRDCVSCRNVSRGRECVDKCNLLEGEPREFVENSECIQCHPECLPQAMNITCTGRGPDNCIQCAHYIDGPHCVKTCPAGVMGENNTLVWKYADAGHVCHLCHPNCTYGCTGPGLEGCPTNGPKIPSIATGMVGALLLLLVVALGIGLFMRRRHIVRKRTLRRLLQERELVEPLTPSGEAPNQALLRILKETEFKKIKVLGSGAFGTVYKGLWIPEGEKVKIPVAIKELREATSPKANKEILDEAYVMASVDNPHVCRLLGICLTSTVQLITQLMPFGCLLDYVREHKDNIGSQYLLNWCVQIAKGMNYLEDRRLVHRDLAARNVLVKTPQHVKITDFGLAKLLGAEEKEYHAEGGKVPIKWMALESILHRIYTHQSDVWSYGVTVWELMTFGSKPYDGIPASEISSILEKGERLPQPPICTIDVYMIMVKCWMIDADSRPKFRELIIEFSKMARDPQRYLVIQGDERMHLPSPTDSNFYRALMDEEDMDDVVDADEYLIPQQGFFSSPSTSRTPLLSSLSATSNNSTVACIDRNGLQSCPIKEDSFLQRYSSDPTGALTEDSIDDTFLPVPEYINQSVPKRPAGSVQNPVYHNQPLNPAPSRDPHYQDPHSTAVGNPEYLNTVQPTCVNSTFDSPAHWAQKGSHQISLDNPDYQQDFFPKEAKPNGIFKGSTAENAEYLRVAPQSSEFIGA", "test": "Inhibition of wild-type EGFR (669 to 1210 residues) (unknown origin) expressed in Sf21 cells at 10 uM preincubated for 10 mins followed by peptide substrate addition relative to control"}, "[3]": {"target": "Wee1-like protein kinase (Homo sapiens) (UniProt P30291)", "test": "Inhibition of Wee1 (215 to 646 residues) (unknown origin) expressed in Sf21 at 10 uM preincubated for 10 mins followed by peptide substrate addition relative to control"}, "[4]": {"target": "Mitogen-activated protein kinase 3 (Homo sapiens) (UniProt P27361)", "sequence (P27361 whole entry, the tested form may be a part)": "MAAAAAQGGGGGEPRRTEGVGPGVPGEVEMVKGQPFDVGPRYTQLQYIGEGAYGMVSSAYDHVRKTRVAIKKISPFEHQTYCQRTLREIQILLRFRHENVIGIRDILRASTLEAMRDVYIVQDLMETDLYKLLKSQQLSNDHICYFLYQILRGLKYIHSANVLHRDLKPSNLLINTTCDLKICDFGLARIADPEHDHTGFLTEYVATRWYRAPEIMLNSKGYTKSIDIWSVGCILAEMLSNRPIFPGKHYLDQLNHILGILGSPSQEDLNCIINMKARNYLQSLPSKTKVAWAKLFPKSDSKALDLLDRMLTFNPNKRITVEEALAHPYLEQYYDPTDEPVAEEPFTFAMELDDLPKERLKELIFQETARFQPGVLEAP", "test": "Inhibition of N-terminal GST-tagged full length ERK1 (1 to 379 residues) (unknown origin) expressed in Escherichia coli at 10 uM preincubated for 10 mins followed by peptide substrate addition relative to control"}, "[5]": {"target": "Tyrosine-protein kinase JAK3 (Homo sapiens) (UniProt P52333)", "sequence (P52333 whole entry, the tested form may be a part)": "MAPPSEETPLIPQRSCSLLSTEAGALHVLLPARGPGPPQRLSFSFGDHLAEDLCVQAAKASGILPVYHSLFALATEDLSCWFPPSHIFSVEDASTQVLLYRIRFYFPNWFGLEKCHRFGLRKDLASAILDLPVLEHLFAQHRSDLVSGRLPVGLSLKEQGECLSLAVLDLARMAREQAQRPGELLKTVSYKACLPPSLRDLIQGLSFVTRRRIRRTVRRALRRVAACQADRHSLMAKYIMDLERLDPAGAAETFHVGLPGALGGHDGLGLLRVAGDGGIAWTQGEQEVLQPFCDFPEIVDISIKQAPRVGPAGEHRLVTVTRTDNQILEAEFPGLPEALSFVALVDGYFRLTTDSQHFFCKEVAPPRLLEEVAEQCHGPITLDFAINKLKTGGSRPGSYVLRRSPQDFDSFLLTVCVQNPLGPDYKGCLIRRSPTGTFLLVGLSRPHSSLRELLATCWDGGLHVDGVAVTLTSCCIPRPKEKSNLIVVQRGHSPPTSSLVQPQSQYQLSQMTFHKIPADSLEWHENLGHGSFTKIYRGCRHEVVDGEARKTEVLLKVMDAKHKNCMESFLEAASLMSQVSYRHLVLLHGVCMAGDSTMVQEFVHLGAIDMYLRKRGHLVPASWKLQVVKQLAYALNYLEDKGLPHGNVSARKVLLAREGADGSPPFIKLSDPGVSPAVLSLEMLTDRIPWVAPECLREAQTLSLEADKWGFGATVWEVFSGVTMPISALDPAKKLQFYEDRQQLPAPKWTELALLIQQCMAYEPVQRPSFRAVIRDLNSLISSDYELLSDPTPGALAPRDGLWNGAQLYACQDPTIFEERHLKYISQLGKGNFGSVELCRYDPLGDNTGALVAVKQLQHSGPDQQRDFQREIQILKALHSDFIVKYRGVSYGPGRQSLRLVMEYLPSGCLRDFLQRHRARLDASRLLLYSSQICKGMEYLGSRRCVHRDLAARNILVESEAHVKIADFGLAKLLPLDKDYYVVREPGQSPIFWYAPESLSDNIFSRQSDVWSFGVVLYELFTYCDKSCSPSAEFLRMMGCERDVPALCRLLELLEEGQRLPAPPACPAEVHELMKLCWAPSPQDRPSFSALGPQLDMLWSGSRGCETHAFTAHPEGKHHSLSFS", "test": "Inhibition of N-terminal His-tagged JAK3 (795 to 1124 residues) (unknown origin) expressed in Sf21 cells at 10 uM preincubated for 10 mins followed by peptide substrate addition relative to control"}, "[6]": {"target": "Signal transducer and activator of transcription 3 (Homo sapiens) (UniProt P40763)", "sequence (P40763 whole entry)": "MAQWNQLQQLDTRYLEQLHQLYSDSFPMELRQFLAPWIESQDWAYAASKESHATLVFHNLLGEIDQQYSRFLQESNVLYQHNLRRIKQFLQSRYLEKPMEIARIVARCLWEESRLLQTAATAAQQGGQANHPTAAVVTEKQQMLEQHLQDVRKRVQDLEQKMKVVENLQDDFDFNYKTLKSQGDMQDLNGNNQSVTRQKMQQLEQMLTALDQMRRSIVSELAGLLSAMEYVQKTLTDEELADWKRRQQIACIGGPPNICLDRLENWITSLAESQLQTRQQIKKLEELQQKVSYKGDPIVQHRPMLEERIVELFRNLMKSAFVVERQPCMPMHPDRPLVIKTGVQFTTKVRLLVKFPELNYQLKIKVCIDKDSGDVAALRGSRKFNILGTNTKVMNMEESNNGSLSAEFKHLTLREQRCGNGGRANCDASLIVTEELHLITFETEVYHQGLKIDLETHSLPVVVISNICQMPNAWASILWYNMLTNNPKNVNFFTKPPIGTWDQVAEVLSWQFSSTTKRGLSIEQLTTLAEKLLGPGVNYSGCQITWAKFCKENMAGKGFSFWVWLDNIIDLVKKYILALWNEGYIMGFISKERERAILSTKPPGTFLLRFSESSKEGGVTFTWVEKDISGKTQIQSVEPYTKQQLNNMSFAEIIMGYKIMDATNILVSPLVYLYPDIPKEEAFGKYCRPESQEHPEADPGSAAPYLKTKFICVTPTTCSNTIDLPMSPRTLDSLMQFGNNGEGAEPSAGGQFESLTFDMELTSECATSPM", "test": "Inhibition of STAT3 promoter activity in human MDA-MB-231 cells at 1 uM incubated for 24 hrs by dual luciferase reporter assay", "format": "cell-based"}, "[7]": {"target": "ALK tyrosine kinase receptor (Homo sapiens) (UniProt Q9UM73)", "test": "Inhibition of ALK (1058 to 1620 residues) (unknown origin) expressed in Sf21 cells at 10 uM preincubated for 10 mins followed by peptide substrate addition relative to control"}, "[8]": {"test": "Toxicity in BALB/c nude mouse xenografted with human MDA-MB-231 cells assessed as effect on body weight at 30 mg/kg, ig administered every two days", "format": "organism-based", "conditions": "in vivo, po"}, "[9]": {"target": "Mitogen-activated protein kinase 1 (Homo sapiens) (UniProt P28482)", "sequence (P28482 whole entry, the tested form may be a part)": "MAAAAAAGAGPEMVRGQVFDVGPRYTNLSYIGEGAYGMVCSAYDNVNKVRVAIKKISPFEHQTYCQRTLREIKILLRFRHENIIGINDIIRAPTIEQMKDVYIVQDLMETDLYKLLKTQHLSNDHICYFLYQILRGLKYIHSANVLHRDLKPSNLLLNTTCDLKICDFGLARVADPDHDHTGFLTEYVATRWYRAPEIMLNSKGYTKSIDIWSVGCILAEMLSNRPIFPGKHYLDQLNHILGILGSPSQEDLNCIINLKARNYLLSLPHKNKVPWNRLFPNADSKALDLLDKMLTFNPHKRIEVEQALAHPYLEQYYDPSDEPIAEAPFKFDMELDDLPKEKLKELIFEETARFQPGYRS", "test": "Inhibition of N-terminal GST-tagged full length ERK2 (1 to 360 residues) (unknown origin) expressed in Escherichia coli at 10 uM preincubated for 10 mins followed by peptide substrate addition relative to control"}, "[10]": {"target": "RAC-beta serine/threonine-protein kinase (Homo sapiens) (UniProt P31751)", "test": "Inhibition of human N-terminal His-tagged full length AKT2 expressed in Sf9 cells at 10 uM preincubated for 10 mins followed by peptide substrate addition relative to control"}, "MDA-MB-231 [11]": {"tested_on": "MDA-MB-231", "test": "Inhibition of human MDA-MB-231 cells migration a 1000 nM after 24 hrs by crystal violet staining based transwell migration assay", "format": "functional, cell-based"}, "MDA-MB-231 [12]": {"tested_on": "MDA-MB-231", "test": "Antiproliferative activity against human MDA-MB-231 cells assessed as inhibition of cell viability at 10 uM after 48 hrs by MTT assay relative to control", "format": "functional"}, "[13]": {"target": "Hepatocyte growth factor receptor (Homo sapiens) (UniProt P08581)", "test": "Inhibition of MET (956 to 1390 residues) (unknown origin) expressed in Sf21 cells at 10 uM preincubated for 10 mins followed by peptide substrate addition relative to control"}, "[14]": {"target": "Fibroblast growth factor receptor 3 (Homo sapiens) (UniProt P22607)", "test": "Inhibition of FGFR3 (436 to 806 residues) (unknown origin) expressed in Sf21 cells at 10 uM preincubated for 10 mins followed by peptide substrate addition relative to control"}, "MDA-MB-231 [15]": {"tested_on": "MDA-MB-231", "test": "Induction of apoptosis in human MDA-MB-231 cells assessed as increase in cleaved caspase 9 expression at 1 to 10 uM incubated for 24 hrs by Western blot analysis", "format": "functional, cell-based", "conditions": "dose 1-10 µM"}, "MDA-MB-231 [16]": {"tested_on": "MDA-MB-231", "test": "Induction of apoptosis in human MDA-MB-231 cells assessed as apoptotic cells at 1 uM measured after 24 hrs by annexinV-FITC/propidium iodide staining based flow cytometry analysis (reference value: 2.49%)", "format": "functional"}, "[17]": {"target": "Mitogen-activated protein kinase 8 (Homo sapiens) (UniProt P45983)", "test": "Inhibition of N-terminal GST-tagged JNK1 (2 to 364 residues) (unknown origin) expressed in Escherichia coli at 10 uM preincubated for 10 mins followed by peptide substrate addition relative to control"}, "[18]": {"target": "Cyclin-dependent kinase 1/cyclin B1 (Homo sapiens) (UniProt P06493+P14635)", "test": "Inhibition of N-terminal GST-tagged full length CDK1/cyclin B1 (unknown origin) expressed in Sf21 cells at 10 uM preincubated for 10 mins followed by peptide substrate addition relative to control"}, "[19]": {"target": "Dual specificity mitogen-activated protein kinase kinase 1 (Homo sapiens) (UniProt Q02750)", "test": "Inhibition of N-terminal GST-tagged full length MEK1 (1 to 393 residues) (unknown origin) expressed in Sf21 cells at 10 uM preincubated for 10 mins followed by peptide substrate addition relative to control"}, "[20]": {"target": "Signal transducer and activator of transcription 3 (Homo sapiens) (UniProt P40763)", "test": "Inhibition of STAT3 promoter activity in human MDA-MB-231 cells at 0.1 uM incubated for 24 hrs by dual luciferase reporter assay", "format": "cell-based"}, "[21]": {"tested_on": "Epidermal growth factor receptor (Homo sapiens), P00533 [T790M]", "test": "Inhibition of EGFR T790M mutant (669 to 1210 residues) (unknown origin) expressed in Sf21 cells at 10 uM preincubated for 10 mins followed by peptide substrate addition relative to control"}, "HCT-116 [22]": {"tested_on": "HCT-116", "test": "Antiproliferative activity against human HCT116 cells assessed as inhibition of cell viability at 10 uM after 48 hrs by MTT assay relative to control", "format": "functional"}, "MDA-MB-231 [23]": {"tested_on": "MDA-MB-231", "test": "Induction of apoptosis in human MDA-MB-231 cells assessed as apoptotic cells at 10 uM measured after 24 hrs by annexinV-FITC/propidium iodide staining based flow cytometry analysis (reference value: 2.49%)", "format": "functional"}, "[24]": {"target": "RAC-alpha serine/threonine-protein kinase (Homo sapiens) (UniProt P31749)", "sequence (P31749 whole entry, the tested form may be a part)": "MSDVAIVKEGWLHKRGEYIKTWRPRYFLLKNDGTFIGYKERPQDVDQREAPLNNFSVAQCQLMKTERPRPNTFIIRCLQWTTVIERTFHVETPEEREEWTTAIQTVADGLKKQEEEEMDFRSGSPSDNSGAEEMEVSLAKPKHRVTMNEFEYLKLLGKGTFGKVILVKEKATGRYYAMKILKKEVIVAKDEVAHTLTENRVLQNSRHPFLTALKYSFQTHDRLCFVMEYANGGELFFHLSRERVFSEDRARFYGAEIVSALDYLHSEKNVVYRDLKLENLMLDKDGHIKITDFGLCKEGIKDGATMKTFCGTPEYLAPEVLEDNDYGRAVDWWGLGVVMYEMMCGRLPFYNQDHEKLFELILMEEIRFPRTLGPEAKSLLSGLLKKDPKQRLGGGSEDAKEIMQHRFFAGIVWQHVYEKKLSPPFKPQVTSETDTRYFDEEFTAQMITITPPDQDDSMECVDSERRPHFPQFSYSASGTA", "test": "Inhibition of human N-terminal His-tagged full length AKT1 (1 to 480 residues) expressed in Sf9 cells at 10 uM preincubated for 10 mins followed by peptide substrate addition relative to control"}, "MDA-MB-231 [25]": {"tested_on": "MDA-MB-231", "test": "Effect on total STAT3 expression in human MDA-MB-231 cells at 1 to 10 uM incubated for 2 hrs by Western blotting analysis", "format": "functional, cell-based", "conditions": "dose 1-10 µM"}, "MDA-MB-231 [26]": {"tested_on": "MDA-MB-231", "test": "Induction of apoptosis in human MDA-MB-231 cells assessed as increase in cleaved caspase 3 expression at 1 to 10 uM incubated for 24 hrs by Western blot analysis", "format": "functional, cell-based", "conditions": "dose 1-10 µM"}, "HCT-116 [27]": {"tested_on": "HCT-116", "test": "Antiproliferative activity against human HCT-116 cells assessed as inhibition of cell viability after 48 hrs by MTT assay", "format": "functional, cell-based", "conditions": "HCT-116, 48 h"}, "[28]": {"target": "Non-receptor tyrosine-protein kinase TYK2 (Homo sapiens) (UniProt P29597)", "test": "Inhibition of TYK2 (871 to 1187 residues) (unknown origin) expressed in Sf21 cells at 10 uM preincubated for 10 mins followed by peptide substrate addition relative to control"}, "[29]": {"target": "Signal transducer and activator of transcription 1-alpha/beta (Homo sapiens) (UniProt P42224)", "sequence (P42224 whole entry)": "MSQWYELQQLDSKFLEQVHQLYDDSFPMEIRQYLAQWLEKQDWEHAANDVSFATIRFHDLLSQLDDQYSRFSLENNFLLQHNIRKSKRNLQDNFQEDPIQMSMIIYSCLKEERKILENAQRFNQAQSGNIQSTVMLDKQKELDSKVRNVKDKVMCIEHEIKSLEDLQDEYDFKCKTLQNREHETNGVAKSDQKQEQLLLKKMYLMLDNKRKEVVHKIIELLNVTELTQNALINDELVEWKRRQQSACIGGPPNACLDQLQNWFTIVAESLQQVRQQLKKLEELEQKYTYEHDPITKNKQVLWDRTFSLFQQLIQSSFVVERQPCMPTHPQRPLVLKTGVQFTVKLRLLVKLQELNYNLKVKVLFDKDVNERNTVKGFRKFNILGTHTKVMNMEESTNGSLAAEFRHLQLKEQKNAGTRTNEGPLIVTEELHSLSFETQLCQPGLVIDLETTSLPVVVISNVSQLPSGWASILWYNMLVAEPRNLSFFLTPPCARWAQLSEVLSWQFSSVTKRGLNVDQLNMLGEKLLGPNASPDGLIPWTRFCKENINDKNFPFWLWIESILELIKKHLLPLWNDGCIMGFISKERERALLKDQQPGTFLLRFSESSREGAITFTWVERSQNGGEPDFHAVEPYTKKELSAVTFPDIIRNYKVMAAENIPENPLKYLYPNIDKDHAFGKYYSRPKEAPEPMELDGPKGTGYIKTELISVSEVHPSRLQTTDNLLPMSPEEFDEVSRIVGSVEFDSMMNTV", "test": "Inhibition of IL-6 induced STAT1 phosphorylation in human MDA-MB-231 cells at 1 to 10 uM preincubated for 2 hrs followed by IL-6 stimulation and measured after 45 mins by Western blotting analysis", "format": "cell-based", "conditions": "dose 1-10 µM, time 165.0 min"}}, "note": "Activity calls are given as the source filed them. The rule behind the calls is not given here."}
{"compound": "CC(C)(C)OC(=O)c1ccc(NC(=O)c2ccc(Cl)c(S(N)(=O)=O)c2)cc1", "values": [{"measurement": "Activity", "setting": "MDA-MB-231 [1]", "value": "Active"}, {"measurement": "inhibition", "setting": "[2]", "value": 4.41, "unit": "%"}, {"measurement": "inhibition", "setting": "[3]", "value": 4.76, "unit": "%"}, {"measurement": "inhibition", "setting": "[4]", "value": 1.72, "unit": "%"}, {"measurement": "inhibition", "setting": "[5]", "value": 4.24, "unit": "%"}, {"measurement": "inhibition", "setting": "[6]", "value": 87.9, "unit": "%"}, {"measurement": "inhibition", "setting": "[7]", "value": 5.19, "unit": "%"}, {"measurement": "Activity", "setting": "[8]", "value": "Non-Toxic"}, {"measurement": "inhibition", "setting": "[9]", "value": 0.78, "unit": "%"}, {"measurement": "inhibition", "setting": "[10]", "value": 3.38, "unit": "%"}, {"measurement": "inhibition", "setting": "MDA-MB-231 [11]", "value": "Active"}, {"measurement": "inhibition at 10 µM", "setting": "MDA-MB-231 [12]", "value": 93, "unit": "%"}, {"measurement": "inhibition", "setting": "[13]", "value": 0.13, "unit": "%"}, {"measurement": "inhibition", "setting": "[14]", "value": 1.25, "unit": "%"}, {"measurement": "Activity", "setting": "MDA-MB-231 [15]", "value": "Active"}, {"measurement": "Activity", "setting": "MDA-MB-231 [16]", "value": 6.75, "unit": "%"}, {"measurement": "inhibition", "setting": "[17]", "value": 2.52, "unit": "%"}, {"measurement": "inhibition", "setting": "[18]", "value": -2.27, "unit": "%"}, {"measurement": "inhibition", "setting": "[19]", "value": 1.56, "unit": "%"}, {"measurement": "inhibition", "setting": "[20]", "value": 24.7, "unit": "%"}, {"measurement": "inhibition", "setting": "[21]", "value": 2.23, "unit": "%"}, {"measurement": "inhibition at 10 µM", "setting": "HCT-116 [22]", "value": 85.3, "unit": "%"}, {"measurement": "Activity", "setting": "MDA-MB-231 [23]", "value": 25.63, "unit": "%"}, {"measurement": "inhibition", "setting": "[24]", "value": 3.48, "unit": "%"}, {"measurement": "inhibition", "setting": "MDA-MB-231 [25]", "value": "Active"}, {"measurement": "Activity", "setting": "MDA-MB-231 [26]", "value": "Active"}, {"measurement": "IC50", "setting": "HCT-116 [27]", "value": 690, "unit": "nM"}, {"measurement": "inhibition", "setting": "[28]", "value": -1.53, "unit": "%"}, {"measurement": "inhibition", "setting": "[29]", "value": "inactive"}]}
